In ChEMBL document CHEMBL1811886 (J Med Chem, 2011):
Blank lines part the entries; values can stand above or below the molecule they belong to.

Experiments:
[1] = Systemic clearance in fasted Sprague-Dawley rat at 1 mg/kg, iv after 6 to 24 hrs by LC-MS/MS analysis; assay type: ADME, organism-based; set-up: dose 1 mg/kg, route intravenous; conditions: in vivo
[2] = target: T1, Histamine H3 receptor (Rattus norvegicus, UniProt Q9QYN8); test: Displacement of [3H]NAMH from rat histamine H3 receptor expressed in CHO cells; assay type: cell-based
T1 sequence (Q9QYN8 whole entry): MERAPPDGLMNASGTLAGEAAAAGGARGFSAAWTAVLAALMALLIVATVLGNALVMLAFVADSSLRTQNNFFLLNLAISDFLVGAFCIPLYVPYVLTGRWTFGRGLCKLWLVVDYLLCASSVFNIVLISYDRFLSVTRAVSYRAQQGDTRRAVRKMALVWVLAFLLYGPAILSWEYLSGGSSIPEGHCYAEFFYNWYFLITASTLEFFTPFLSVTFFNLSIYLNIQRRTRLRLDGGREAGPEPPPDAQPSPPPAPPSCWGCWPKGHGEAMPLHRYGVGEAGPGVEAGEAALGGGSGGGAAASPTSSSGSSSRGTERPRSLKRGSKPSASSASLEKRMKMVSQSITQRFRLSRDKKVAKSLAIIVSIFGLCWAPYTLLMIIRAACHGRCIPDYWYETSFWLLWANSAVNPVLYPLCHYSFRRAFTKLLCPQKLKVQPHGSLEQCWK

[3] = target: T2, Histamine H3 receptor (Homo sapiens, UniProt Q9Y5N1); test: Displacement of [3H]NAMH from human histamine H3 receptor expressed in CHO cells; assay type: cell-based
T2 sequence (Q9Y5N1 whole entry): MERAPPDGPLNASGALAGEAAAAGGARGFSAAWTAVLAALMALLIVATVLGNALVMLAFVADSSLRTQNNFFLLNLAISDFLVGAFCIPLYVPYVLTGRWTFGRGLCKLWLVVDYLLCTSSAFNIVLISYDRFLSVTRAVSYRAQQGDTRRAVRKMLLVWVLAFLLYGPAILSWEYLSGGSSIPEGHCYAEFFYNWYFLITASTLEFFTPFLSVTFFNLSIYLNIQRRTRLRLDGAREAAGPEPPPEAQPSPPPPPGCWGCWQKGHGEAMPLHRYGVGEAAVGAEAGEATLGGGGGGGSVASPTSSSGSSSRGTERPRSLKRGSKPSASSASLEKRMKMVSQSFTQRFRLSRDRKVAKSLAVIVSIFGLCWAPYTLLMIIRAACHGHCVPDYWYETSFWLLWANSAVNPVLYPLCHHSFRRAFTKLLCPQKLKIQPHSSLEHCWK

[4] = Oral bioavailability in fasted Sprague-Dawley rat at 5 mg/kg after 6 hrs by LC-MS/MS analysis; assay type: ADME, organism-based; conditions: in vivo
[5] = Ratio of drug uptake in brain to plasma of fasted Sprague-Dawley rat at 1 mg/kg, iv after 6 to 24 hrs by LC-MS/MS analysis; assay type: ADME, organism-based; set-up: dose 1 mg/kg, route intravenous; conditions: read-out: BPR
[6] = Terminal half life in fasted Sprague-Dawley rat at 1 mg/kg, iv after 6 to 24 hrs by LC-MS/MS analysis; assay type: ADME, organism-based; set-up: dose 1 mg/kg, route intravenous; conditions: in vivo, read-out: beta t1/2 (converted)
[7] = Volume of distribution in Beagle dog at 1 mg/kg, iv after 6 to 24 hrs by LC-MS/MS analysis; assay type: ADME, organism-based, Canis lupus familiaris; set-up: dose 1 mg/kg, route intravenous; conditions: in vivo
[8] = Terminal half life in cynomolgus monkey at 1 mg/kg, po after 6 to 24 hrs by LC-MS/MS analysis; assay type: ADME, organism-based, Macaca fascicularis; set-up: dose 1 mg/kg, route oral; conditions: in vivo, read-out: beta t1/2 (converted)
[9] = Metabolic stability of compound in mouse liver microsomes assessed as half life; assay type: ADME, Microsome
[10] = Oral bioavailability in cynomolgus monkey at 1 mg/kg after 6 to 24 hrs by LC-MS/MS analysis; assay type: ADME, organism-based, Macaca fascicularis; conditions: in vivo
[11] = system: Plasma; test: Clearance in Sprague-Dawley rat plasma at 10 mg/kg, po administered as single dose after 24 hrs by LC-MS/MS analysis; assay type: ADME, organism-based; set-up: dose 10 mg/kg, route oral; conditions: in vivo
[12] = Metabolic stability of compound in human liver microsomes assessed as half life; assay type: ADME, Microsome
[13] = Terminal half life in fasted Sprague-Dawley rat at 3 mg/kg, po after 6 to 24 hrs by LC-MS/MS analysis; assay type: ADME, organism-based; set-up: dose 3 mg/kg, route oral; conditions: in vivo, read-out: beta t1/2 (converted)
[14] = Terminal half life in cynomolgus monkey at 1 mg/kg, iv after 6 to 24 hrs by LC-MS/MS analysis; assay type: ADME, organism-based, Macaca fascicularis; set-up: dose 1 mg/kg, route intravenous; conditions: in vivo, read-out: beta t1/2 (converted)
[15] = Metabolic stability of compound in human liver microsomes assessed as compound remaining at 40 mins; assay type: ADME, Microsome; conditions: read-out: Stability
[16] = system: Canis familiaris; test: Cmax in Beagle dog at 3 mg/kg, po after 6 to 24 hrs by LC-MS/MS analysis; assay type: ADME, organism-based, Canis lupus familiaris; set-up: dose 3 mg/kg, route oral; conditions: in vivo
[17] = system: Liver; test: Clearance in Sprague-Dawley rat liver at 10 mg/kg, po administered as single dose after 24 hrs by LC-MS/MS analysis; assay type: ADME, organism-based; set-up: dose 10 mg/kg, route oral; conditions: in vivo
[18] = system: Lung; test: Clearance in Sprague-Dawley rat lung at 10 mg/kg, po administered as single dose after 24 hrs by LC-MS/MS analysis; assay type: ADME, organism-based; set-up: dose 10 mg/kg, route oral; conditions: in vivo
[19] = Metabolic stability of compound in dog liver microsomes assessed as half life; assay type: ADME, Canis lupus familiaris, Microsome
[20] = Cmax in fasted Sprague-Dawley rat at 3 mg/kg, po after 6 to 24 hrs by LC-MS/MS analysis; assay type: ADME, organism-based; set-up: dose 3 mg/kg, route oral; conditions: in vivo
[21] = Metabolic stability of compound in rat liver microsomes assessed as compound remaining at 40 mins; assay type: ADME, Microsome; conditions: read-out: Stability
[22] = Terminal half life in Beagle dog at 1 mg/kg, iv after 6 to 24 hrs by LC-MS/MS analysis; assay type: ADME, organism-based, Canis lupus familiaris; set-up: dose 1 mg/kg, route intravenous; conditions: in vivo, read-out: beta t1/2 (converted)
[23] = Volume of distribution in cynomolgus monkey at 1 mg/kg, iv after 6 to 24 hrs by LC-MS/MS analysis; assay type: ADME, organism-based, Macaca fascicularis; set-up: dose 1 mg/kg, route intravenous; conditions: in vivo
[24] = Metabolic stability of compound in mouse liver microsomes assessed as compound remaining at 40 mins; assay type: ADME, Microsome; conditions: read-out: Stability
[25] = system: Heart; test: Clearance in Sprague-Dawley rat heart at 10 mg/kg, po administered as single dose after 24 hrs by LC-MS/MS analysis; assay type: ADME, organism-based; set-up: dose 10 mg/kg, route oral; conditions: in vivo
[26] = Fraction unbound in rat brain; assay type: ADME, tissue-based
[27] = system: Spleen; test: Clearance in Sprague-Dawley rat spleen at 10 mg/kg, po administered as single dose after 24 hrs by LC-MS/MS analysis; assay type: ADME, organism-based; set-up: dose 10 mg/kg, route oral; conditions: in vivo
[28] = target: Cytochrome P450 2D6 (Homo sapiens, UniProt P10635); test: Inhibition of CYP2D6; assay type: ADME
Chain of Cytochrome P450 2D6 (P10635 whole entry): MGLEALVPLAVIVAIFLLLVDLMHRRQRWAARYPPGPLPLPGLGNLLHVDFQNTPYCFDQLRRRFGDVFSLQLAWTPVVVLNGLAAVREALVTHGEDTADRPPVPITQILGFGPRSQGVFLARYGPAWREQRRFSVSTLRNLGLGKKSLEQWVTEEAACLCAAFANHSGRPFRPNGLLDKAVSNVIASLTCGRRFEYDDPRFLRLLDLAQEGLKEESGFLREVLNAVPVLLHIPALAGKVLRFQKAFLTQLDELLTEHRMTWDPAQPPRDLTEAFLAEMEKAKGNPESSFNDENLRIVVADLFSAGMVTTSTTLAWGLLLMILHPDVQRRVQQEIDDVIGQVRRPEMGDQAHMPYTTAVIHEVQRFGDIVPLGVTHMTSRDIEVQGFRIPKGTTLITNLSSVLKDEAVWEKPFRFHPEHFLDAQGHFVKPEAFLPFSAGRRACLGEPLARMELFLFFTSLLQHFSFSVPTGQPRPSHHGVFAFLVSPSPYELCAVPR

[29] = Plasma protein binding in Beagle dog after 1 hr by LC/MS/MS analysis; assay type: ADME, cell-free, Canis lupus familiaris; conditions: read-out: PPB (converted)
[30] = Cmax in cynomolgus monkey at 1 mg/kg, po after 6 to 24 hrs by LC-MS/MS analysis; assay type: ADME, organism-based, Macaca fascicularis; set-up: dose 1 mg/kg, route oral; conditions: in vivo
[31] = Terminal half life in Beagle dog at 3 mg/kg, po after 6 to 24 hrs by LC-MS/MS analysis; assay type: ADME, organism-based, Canis lupus familiaris; set-up: dose 3 mg/kg, route oral; conditions: in vivo, read-out: beta t1/2 (converted)
[32] = target: Cytochrome P450 2C19 (Homo sapiens, UniProt P33261); test: Inhibition of CYP2C19; assay type: ADME
Chain of Cytochrome P450 2C19 (P33261 whole entry): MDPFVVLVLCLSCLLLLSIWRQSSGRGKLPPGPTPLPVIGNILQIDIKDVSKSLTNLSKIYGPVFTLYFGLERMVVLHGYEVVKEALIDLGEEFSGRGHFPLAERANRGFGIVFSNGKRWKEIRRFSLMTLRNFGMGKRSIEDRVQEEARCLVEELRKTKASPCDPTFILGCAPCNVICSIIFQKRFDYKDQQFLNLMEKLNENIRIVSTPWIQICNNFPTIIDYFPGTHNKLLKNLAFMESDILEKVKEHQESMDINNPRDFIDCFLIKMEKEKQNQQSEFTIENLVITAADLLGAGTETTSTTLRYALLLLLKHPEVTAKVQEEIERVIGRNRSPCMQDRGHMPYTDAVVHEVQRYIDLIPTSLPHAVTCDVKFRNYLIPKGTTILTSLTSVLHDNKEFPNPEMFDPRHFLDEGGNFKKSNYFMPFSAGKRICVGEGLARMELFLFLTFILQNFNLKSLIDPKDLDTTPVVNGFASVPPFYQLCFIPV

[33] = system: Kidney; test: Clearance in Sprague-Dawley rat kidney at 10 mg/kg, po administered as single dose after 24 hrs by LC-MS/MS analysis; assay type: ADME, organism-based; set-up: dose 10 mg/kg, route oral; conditions: in vivo
[34] = Clearance in cynomolgus monkey at 1 mg/kg, iv after 6 to 24 hrs by LC-MS/MS analysis; assay type: ADME, organism-based, Macaca fascicularis; set-up: dose 1 mg/kg, route intravenous; conditions: in vivo
[35] = Oral bioavailability in fasted Sprague-Dawley rat at 3 mg/kg, po after 6 to 24 hrs by LC-MS/MS analysis; assay type: ADME, organism-based; conditions: in vivo
[36] = target: Cytochrome P450 3A4 (Homo sapiens, UniProt P08684); test: Inhibition of CYP3A4; assay type: ADME
Chain of Cytochrome P450 3A4 (P08684 whole entry): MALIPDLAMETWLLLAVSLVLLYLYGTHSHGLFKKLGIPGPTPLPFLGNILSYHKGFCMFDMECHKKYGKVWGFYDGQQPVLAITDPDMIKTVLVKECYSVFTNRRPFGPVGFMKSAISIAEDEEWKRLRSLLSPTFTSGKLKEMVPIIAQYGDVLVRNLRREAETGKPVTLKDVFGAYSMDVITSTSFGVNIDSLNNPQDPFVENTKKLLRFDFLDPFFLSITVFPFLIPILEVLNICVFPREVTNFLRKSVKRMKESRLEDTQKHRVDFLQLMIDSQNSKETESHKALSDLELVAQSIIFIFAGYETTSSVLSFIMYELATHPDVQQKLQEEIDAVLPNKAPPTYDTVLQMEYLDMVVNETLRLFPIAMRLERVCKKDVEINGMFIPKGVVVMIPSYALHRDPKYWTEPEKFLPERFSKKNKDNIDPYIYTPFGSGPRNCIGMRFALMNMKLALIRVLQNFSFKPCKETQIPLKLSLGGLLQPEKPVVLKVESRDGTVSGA

[37] = system: Brain; test: Clearance in Sprague-Dawley rat brain at 10 mg/kg, po administered as single dose after 24 hrs by LC-MS/MS analysis; assay type: ADME, organism-based; set-up: dose 10 mg/kg, route oral; conditions: in vivo
[38] = target: Cytochrome P450 1A2 (Homo sapiens, UniProt P05177); test: Inhibition of CYP1A2; assay type: ADME
Chain of Cytochrome P450 1A2 (P05177 whole entry): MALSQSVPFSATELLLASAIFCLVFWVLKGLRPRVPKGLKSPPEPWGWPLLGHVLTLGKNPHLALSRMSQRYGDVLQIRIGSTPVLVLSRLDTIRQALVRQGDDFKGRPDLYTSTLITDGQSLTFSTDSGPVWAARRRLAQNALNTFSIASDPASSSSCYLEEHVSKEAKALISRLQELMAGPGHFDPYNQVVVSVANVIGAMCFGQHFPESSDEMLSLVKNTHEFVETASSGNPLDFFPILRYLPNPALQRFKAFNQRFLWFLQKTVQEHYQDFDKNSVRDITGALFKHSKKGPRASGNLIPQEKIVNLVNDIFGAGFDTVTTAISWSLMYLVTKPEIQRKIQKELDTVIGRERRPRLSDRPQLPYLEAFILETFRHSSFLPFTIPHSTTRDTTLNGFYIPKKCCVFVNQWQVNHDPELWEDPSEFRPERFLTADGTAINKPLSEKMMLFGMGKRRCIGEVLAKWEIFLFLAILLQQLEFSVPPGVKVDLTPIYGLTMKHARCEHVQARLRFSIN

[39] = Metabolic stability of compound in rat liver microsomes assessed as half life; assay type: ADME, Microsome
[40] = Oral bioavailability in Beagle dog at 3 mg/kg after 6 to 24 hrs by LC-MS/MS analysis; assay type: ADME, organism-based, Canis lupus familiaris; conditions: in vivo
[41] = Plasma protein binding in rat after 1 hr by LC/MS/MS analysis; assay type: ADME, cell-free; conditions: read-out: PPB (converted)
[42] = Clearance in Beagle dog at 1 mg/kg, iv after 6 to 24 hrs by LC-MS/MS analysis; assay type: ADME, organism-based, Canis lupus familiaris; set-up: dose 1 mg/kg, route intravenous; conditions: in vivo
[43] = Ratio of drug uptake in brain to plasma of Beagle dog at 5 mg/kg, po after 6 to 24 hrs by LC-MS/MS analysis; assay type: ADME, organism-based, Canis lupus familiaris; set-up: dose 5 mg/kg, route oral; conditions: read-out: BPR
[44] = AUC in fasted Sprague-Dawley rat at 3 mg/kg, po after 6 to 24 hrs by LC-MS/MS analysis; assay type: ADME, organism-based; set-up: dose 3 mg/kg, route oral; conditions: plasma
[45] = Volume of distribution in fasted Sprague-Dawley rat at 1 mg/kg, iv after 6 to 24 hrs by LC-MS/MS analysis; assay type: ADME, organism-based; set-up: dose 1 mg/kg, route intravenous; conditions: in vivo
[46] = AUC in cynomolgus monkey at 1 mg/kg, po after 6 to 24 hrs by LC-MS/MS analysis; assay type: ADME, organism-based, Macaca fascicularis; set-up: dose 1 mg/kg, route oral; conditions: plasma
[47] = Metabolic stability of compound in dog liver microsomes assessed as compound remaining at 40 mins; assay type: ADME, Canis lupus familiaris, Microsome; conditions: read-out: Stability
[48] = target: Cytochrome P450 2C9 (Homo sapiens, UniProt P11712); test: Inhibition of CYP2C9; assay type: ADME
Chain of Cytochrome P450 2C9 (P11712 whole entry): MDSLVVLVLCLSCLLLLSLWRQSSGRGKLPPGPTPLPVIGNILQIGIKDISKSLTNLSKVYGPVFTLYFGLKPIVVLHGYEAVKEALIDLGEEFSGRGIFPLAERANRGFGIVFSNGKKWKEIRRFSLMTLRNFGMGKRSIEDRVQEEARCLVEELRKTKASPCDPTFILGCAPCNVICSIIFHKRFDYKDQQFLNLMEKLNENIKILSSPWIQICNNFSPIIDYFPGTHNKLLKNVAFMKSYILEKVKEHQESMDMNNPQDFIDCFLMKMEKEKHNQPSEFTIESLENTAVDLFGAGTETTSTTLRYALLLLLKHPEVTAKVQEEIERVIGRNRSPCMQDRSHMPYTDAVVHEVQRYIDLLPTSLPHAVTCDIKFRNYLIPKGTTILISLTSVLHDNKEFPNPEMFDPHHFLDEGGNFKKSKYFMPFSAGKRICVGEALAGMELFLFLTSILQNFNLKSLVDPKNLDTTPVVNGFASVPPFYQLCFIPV

[49] = Plasma protein binding in human after 1 hr by LC/MS/MS analysis; assay type: ADME, cell-free; conditions: read-out: PPB (converted)
[50] = AUC in Beagle dog at 3 mg/kg, po after 6 to 24 hrs by LC-MS/MS analysis; assay type: ADME, organism-based, Canis lupus familiaris; set-up: dose 3 mg/kg, route oral; conditions: plasma
[51] = target: Voltage-gated inwardly rectifying potassium channel KCNH2 (Homo sapiens, UniProt Q12809); test: Inhibition of recombinant human ERG channel expressed in human HEK 293 cells by patch clamp assay; assay type: cell-based, HEK293
Chain of Voltage-gated inwardly rectifying potassium channel KCNH2 (Q12809 whole entry): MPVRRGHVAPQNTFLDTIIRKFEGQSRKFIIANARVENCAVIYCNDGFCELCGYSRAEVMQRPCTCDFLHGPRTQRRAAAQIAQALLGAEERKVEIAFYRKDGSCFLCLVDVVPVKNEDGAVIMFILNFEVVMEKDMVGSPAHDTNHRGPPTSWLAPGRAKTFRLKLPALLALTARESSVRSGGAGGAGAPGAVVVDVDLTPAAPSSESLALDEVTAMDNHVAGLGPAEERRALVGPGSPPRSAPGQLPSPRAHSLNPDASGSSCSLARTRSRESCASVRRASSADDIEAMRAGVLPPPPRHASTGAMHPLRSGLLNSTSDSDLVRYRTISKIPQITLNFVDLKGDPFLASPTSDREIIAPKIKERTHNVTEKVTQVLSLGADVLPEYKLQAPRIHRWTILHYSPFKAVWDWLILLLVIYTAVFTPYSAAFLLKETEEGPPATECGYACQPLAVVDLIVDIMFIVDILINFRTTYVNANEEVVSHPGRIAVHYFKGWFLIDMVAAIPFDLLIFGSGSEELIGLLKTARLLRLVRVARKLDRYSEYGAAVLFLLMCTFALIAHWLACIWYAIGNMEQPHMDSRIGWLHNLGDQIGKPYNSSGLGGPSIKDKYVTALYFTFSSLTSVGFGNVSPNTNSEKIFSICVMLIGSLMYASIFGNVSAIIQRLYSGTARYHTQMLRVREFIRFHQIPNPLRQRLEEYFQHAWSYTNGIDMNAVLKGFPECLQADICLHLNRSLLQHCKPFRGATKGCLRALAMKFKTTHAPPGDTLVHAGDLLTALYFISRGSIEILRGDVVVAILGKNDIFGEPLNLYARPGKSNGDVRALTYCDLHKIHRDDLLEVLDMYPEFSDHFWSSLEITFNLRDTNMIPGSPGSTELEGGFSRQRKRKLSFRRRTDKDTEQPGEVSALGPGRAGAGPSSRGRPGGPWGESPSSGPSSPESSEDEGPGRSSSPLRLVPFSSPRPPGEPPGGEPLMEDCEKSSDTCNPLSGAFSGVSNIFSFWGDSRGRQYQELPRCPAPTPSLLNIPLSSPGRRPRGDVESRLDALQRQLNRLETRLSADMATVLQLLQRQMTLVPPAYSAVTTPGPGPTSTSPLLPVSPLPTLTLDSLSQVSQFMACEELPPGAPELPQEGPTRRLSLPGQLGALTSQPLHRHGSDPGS

[52] = Distribution coefficient log D of the compound at pH 7.4; assay type: physicochemical; conditions: octanol/water
[53] = target: T2, Histamine H3 receptor; test: Inverse agonist activity at human histamine H3 receptor assessed as inhibition of R-alpha-methylhistamine induced [35S]GTPgammaS binding; assay type: functional
[54] = Oral bioavailability in fasted Sprague-Dawley rat at 10 mg/kg after 24 hrs by LC-MS/MS analysis; assay type: ADME, organism-based; conditions: in vivo
[55] = target: T1, Histamine H3 receptor; test: Inverse agonist activity at rat histamine H3 receptor assessed as inhibition of R-alpha-methylhistamine induced [35S]GTPgammaS binding; assay type: functional
[56] = target: T2, Histamine H3 receptor; test: Antagonist activity against human histamine H3 receptor assessed as inhibition of R-alpha-methylhistamine induced [35S]GTPgammaS binding; assay type: functional
[57] = system: Rattus norvegicus; test: Inhibition of RAMH-induced dipsogenia in Long Evans rat administered as po 15 mins prior to RAMH challenge; assay type: functional

clearance [1]: 46 mL/min/kg
Ki [2]: 12 nM
Ki [3]: 6.9 nM
bioavailability [4]: < 1%
Kp [5]: 3.8
half-life [6]: 0.7 h
SMILES: C[C@@H]1CCCN1CCCOc1ccc(-c2ccc(=O)n(Cc3ccccc3)n2)cc1

Ki [2]: 45 nM
Ki [3]: 16 nM
SMILES: O=c1ccc(-c2ccc(OCCCN3CCCC3)cc2)n[nH]1

Vd [7]: 3.5 L/kg
half-life [8]: 5 h
clearance [1]: 42 mL/min/kg
half-life [9]: > 0.667 h
bioavailability [10]: 83%
CL [11]: > 98%
half-life [12]: > 0.667 h
half-life [13]: 2.9 h
half-life [14]: 5.4 h
remaining at 40 min [15]: > 98%
Cmax [16]: 230 ng/mL
CL [17]: > 98%
CL [18]: > 98%
half-life [19]: > 0.667 h
Cmax [20]: 270 ng/mL
remaining at 40 min [21]: > 98%
half-life [22]: 2.9 h
Vd [23]: 3.8 L/kg
remaining at 40 min [24]: > 98%
CL [25]: > 98%
fraction unbound [26]: 0.4
CL [27]: > 98%
Kp [5]: 2.6
IC50 [28]: > 30000 nM
fraction unbound at 1 h [29]: 0.68
half-life [6]: 2.6 h
Cmax [30]: 760 ng/mL
half-life [31]: 2.7 h
IC50 [32]: > 30000 nM
CL [33]: > 98%
clearance [34]: 7.7 mL/min/kg
bioavailability [35]: 83%
IC50 [36]: > 30000 nM
CL [37]: > 98%
IC50 [38]: > 30000 nM
half-life [39]: > 0.667 h
bioavailability [40]: 22%
fraction unbound at 1 h [41]: 0.61
clearance [42]: 13.2 mL/min/kg
Kp [43]: 2.4
AUC [44]: 984 ng·h/mL
Vd [45]: 9.4 L/kg
AUC [46]: 1920 ng·h/mL
remaining at 40 min [47]: > 98%
IC50 [48]: > 30000 nM
fraction unbound at 1 h [49]: 0.56
AUC [50]: 1190 ng·h/mL
SMILES: C[C@@H]1CCCN1CCCOc1ccc(-c2ccc(=O)[nH]n2)cc1.Cl [IRDABISANT HYDROCHLORIDE]

clearance [1]: 50 mL/min/kg
Ki [2]: 106 nM
Ki [3]: 21 nM
bioavailability [4]: 22%
Kp [5]: 5.3
half-life [6]: 1.2 h
SMILES: Cn1nc(-c2ccc(OCCCN3CCCCC3)cc2)ccc1=O

clearance [1]: 45 mL/min/kg
logD [52]: 0.8
EC50 [53]: 1 nM
Ki [2]: 6.3 nM
Ki [3]: 1.4 nM
Kp [5]: 3.5
half-life [6]: 1.6 h
bioavailability [54]: 39%
EC50 [55]: 2.2 nM
Kb [56]: 0.5 nM
SMILES: C[C@@H]1CCCN1CCCOc1ccc(-c2ccc(=O)n(C)n2)cc1
IC50 [51]: 13000 nM
ED50 [57]: 0.14 mg/kg
